Assay results from PubChem BioAssay AID1503 (Sanford-Burnham Center for Chemical Genomics, 2009).
In brackets after ≈: the same amount, converted by molar mass. Activity calls are given as the source filed them.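 The calls were made as follows: active = compounds whose lowest dose cutting E. coli growth over twofold at 37 C is below a set limit; inactive = the rest.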

Tested on: E. coli growth, OD530, overnight, 37 C
Experiment: antibacterial MIC against E. coli – 37 and 42 C, DnaK modulator project, SAR follow-up (AID 1503)
[1] = measured here: E. coli MIC at 42 C

SMILES | MIC | MIC [1] [mM]
O=C(NCc1ccccc1F)c1cccs1 | > 4 mM (inactive) | 
O=C(Nc1ccc2[nH]ccc2c1)c1cccs1 | 0.4 mM (≈ 96.9 µg/mL) | 0.4 (≈ 96.9 µg/mL)
Nc1ccc2c(ccn2C(=O)c2cccs2)c1 | < 4 mM (inactive) | > 4
O=C(NCc1ccccc1Br)c1cccs1 | > 4 mM (inactive) | 

Now from value to molecule:

MIC | MIC [1] [mM] | SMILES
> 10 mM (inactive) | > 10 | CC(Cc1ccc(F)cc1)NC(=O)c1cccs1 (configuration not stated)
> 4 mM (inactive) |  | Cc1ccc(C(=O)NCc2ccc(F)cc2)o1
0.25 mM (≈ 65.1 µg/mL) | 0.25 (≈ 65.1 µg/mL) | Cc1ccc(CNC(=O)c2ccc([N+](=O)[O-])o2)cc1
> 4 mM (inactive) |  | Cc1ccc(C(=O)NCc2ccc(Cl)cc2)o1
